The molecules below were run against T1, KRAS G12D/RAF1 (Homo sapiens, UniProt P01116, G12D) (assay: Protein-protein interaction (PPI) HTRF assay KRAS G12D/RAF1). Settings: Table 4.
T1 construct: His6-MBP (N, cleaved yes); made in house; host or cells: E. coli
Format: binding
Method in brief: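 Biotinylated human KRAS (1-169; wt, G12D, G12V) or wt NRAS, GppNHp-loaded, pre-incubated 30 min RT with compound and streptavidin-d2, then His-RAF1 RBD (52-131) with anti-6His Tb cryptate added for 1 h RT. HTRF 665/615 ratio normalized to no compound (0%) and untagged RAF1 (100%); IC50.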

T1 sequence (P01116 with tags, fused parts or gaps isoform P01116-2 G12D): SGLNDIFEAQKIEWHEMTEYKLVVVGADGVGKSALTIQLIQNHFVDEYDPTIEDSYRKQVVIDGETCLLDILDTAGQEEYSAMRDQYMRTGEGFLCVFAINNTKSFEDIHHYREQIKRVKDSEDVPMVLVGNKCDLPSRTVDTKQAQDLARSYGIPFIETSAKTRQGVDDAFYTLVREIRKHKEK

**Q.** Which IC50 does the source give for `CN(C)CC1(COc2nc(N3C[C@H]4CC[C@@H](C3)N4)c(C#N)c(N3CC4(CCc5sc(N)c(C#N)c54)C3)n2)CC1(F)F` (mixture of isomers) [Compound 74, 2-amino-1′-[5-cyano-6-(3,8-diazabicyclo[3.2.1]octan-3-yl)-2-[[1-[(dimethylamino)methyl]-2,2-difluoro-cyclopropyl]methoxy]pyrimidin-4-yl]spiro[5,6-dihydrocyclopenta[b]thiophene-4,3′-azetidine]-3-carbonitrile] here?
**A.** 10000 to 100000 nM

**Q.** Which IC50 does the source give for `N#Cc1c(N2C[C@H]3CC[C@@H](C2)N3)nc(OCC2(CN3CCOCC3)CC2)nc1N1CC2(CCc3sc(N)c(C#N)c32)C1` [Compound 4, 2-amino-1′-[5-cyano-2-[[1-(morpholinomethyl)cyclopropyl]methoxy]-6-[(1R,5S)-3,8-diazabicyclo[3.2.1]octan-3-yl]pyrimidin-4-yl]spiro[5,6-dihydrocyclopenta[b]thiophene-4,3′-azetidine]-3-carbonitrile] here?
**A.** < 100 nM

**Q.** Which IC50 does the source give for `CN(C)C(=O)c1nn2c(c1Cl)CN(c1nc(OCC3(CN4CCOCC4)CC3)nc(N3CC4(CCc5sc(N)c(C#N)c54)C3)c1C#N)CCC2` [Compound 5, 5-[6-(2-amino-3-cyano-spiro[5,6-dihydrocyclopenta[b]thiophene-4,3′-azetidine]-1′-yl)-5-cyano-2-[[1-(morpholinomethyl)cyclopropyl]methoxy]pyrimidin-4-yl]-3-chloro-N,N-dimethyl-4,6,7,8-tetrahydropyrazolo[1,5-a][1,4]diazepine-2-carboxamide] here?
**A.** 1000 to 10000 nM

**Q.** With `N#Cc1c(N)sc2c1C1(CC2)CN(c2nc(OC[C@@]34CCCN3C[C@H](F)C4)nc(N3CCC[C@]4(C3)NC(=O)NC4=O)c2F)C1` [Compound 7, 2-amino-1′-[6-[(5R)-2,4-dioxo-1,3,9-triazaspiro[4.5]decan-9-yl]-5-fluoro-2-[[(2R,8S)-2-fluoro-1,2,3,5,6,7-hexahydropyrrolizin-8-yl]methoxy]pyrimidin-4-yl]spiro[5,6-dihydrocyclopenta[b]thiophene-4,3′-azetidine]-3-carbonitrile] as the molecule, how does the IC50 read?
**A.** 100 to 1000 nM

**Q.** Which IC50 does the source give for `CN(C)C(=O)c1cc2n(n1)CCCN(c1nc(OC[C@@]34CCCN3C[C@H](F)C4)nc(N3CC4(CCc5sc(N)c(C#N)c54)C3)c1C#N)C2` [Compound 8, 5-[6-(2-amino-3-cyano-spiro[5,6-dihydrocyclopenta[b]thiophene-4,3′-azetidine]-1′-yl)-5-cyano-2-[[(2R,8S)-2-fluoro-1,2,3,5,6,7-hexahydropyrrolizin-8-yl]methoxy]pyrimidin-4-yl]-N,N-dimethyl-4,6,7,8-tetrahydropyrazolo[1,5-a][1,4]diazepine-2-carboxamide] here?
**A.** 1000 to 10000 nM

**Q.** For `CN(C)C(=O)c1nn2c(c1Cl)CN(c1nc(OC[C@@]34CCCN3C[C@H](F)C4)nc(N3CC4(CCc5sc(N)c(C#N)c54)C3)c1F)CCC2` [Compound 9, 5-[6-(2-amino-3-cyano-spiro[5,6-dihydrocyclopenta[b]thiophene-4,3′-azetidine]-1′-yl)-5-fluoro-2-[[(2R,8S)-2-fluoro-1,2,3,5,6,7-hexahydropyrrolizin-8-yl]methoxy]pyrimidin-4-yl]-3-chloro-N,N-dimethyl-4,6,7,8-tetrahydropyrazolo[1,5-a][1,4]diazepine-2-carboxamide], which IC50 is on record?
**A.** 1000 to 10000 nM

**Q.** `CN(C)C(=O)c1nn2c(c1Cl)CN(c1nc(OC[C@@]34CCCN3C[C@H](F)C4)nc(N3CC4(CCCCc5sc(N)c(C#N)c54)C3)c1C#N)CCC2` [Compound 10, 5-[6-(2-amino-3-cyano-spiro[5,6,7,8-tetrahydrocyclohepta[b]thiophene-4,3′-azetidine]-1′-yl)-5-cyano-2-[[(2R,8S)-2-fluoro-1,2,3,5,6,7-hexahydropyrrolizin-8-yl]methoxy]pyrimidin-4-yl]-3-chloro-N,N-dimethyl-4,6,7,8-tetrahydropyrazolo[1,5-a][1,4]diazepine-2-carboxamide] was tested. Which IC50 did it give?
**A.** 1000 to 10000 nM

**Q.** For `N#Cc1c(N2CC3(CCc4sc(N)c(C#N)c43)C2)nc(OC[C@@]23CCCN2C[C@H](F)C3)nc1N1CCC[C@]2(C1)NC(=O)NC2=O` [Compound 11, 2-amino-1′-[5-cyano-6-[(5R)-2,4-dioxo-1,3,9-triazaspiro[4.5]decan-9-yl]-2-[[(2R,8S)-2-fluoro-1,2,3,5,6,7-hexahydropyrrolizin-8-yl]methoxy]pyrimidin-4-yl]spiro[5,6-dihydrocyclopenta[b]thiophene-4,3′-azetidine]-3-carbonitrile], which IC50 is on record?
**A.** 100 to 1000 nM

**Q.** How did the IC50 turn out when `N#Cc1c(N2CCCC3(C2)NC(=O)NC3=O)nc(OC[C@@]23CCCN2C[C@H](F)C3)nc1N1CC2(CCc3sc(N)c(C#N)c32)C1` (stereo partly drawn) [Compound 12, 2-amino-1′-[5-cyano-6-(2,4-dioxo-1,3,9-triazaspiro[4.5]decan-9-yl)-2-[[(2R,8S)-2-fluoro-1,2,3,5,6,7-hexahydropyrrolizin-8-yl]methoxy]pyrimidin-4-yl]spiro[5,6-dihydrocyclopenta[b]thiophene-4,3′-azetidine]-3-carbonitrile] was run?
**A.** 100 to 1000 nM

**Q.** With `CC(=O)c1nn2c(c1Cl)CN(c1nc(OC[C@@]34CCCN3C[C@H](F)C4)nc(N3CC4(CCc5sc(N)c(C#N)c54)C3)c1C#N)CCC2` [Compound 13, 1′-[6-(2-acetyl-3-chloro-4,6,7,8-tetrahydropyrazolo[1,5-a][1,4]diazepin-5-yl)-5-cyano-2-[[(2R,8S)-2-fluoro-1,2,3,5,6,7-hexahydropyrrolizin-8-yl]methoxy]pyrimidin-4-yl]-2-amino-spiro[5,6-dihydrocyclopenta[b]thiophene-4,3′-azetidine]-3-carbonitrile] as the molecule, how does the IC50 read?
**A.** 1000 to 10000 nM

**Q.** How did the IC50 turn out when `CC1CC2(CN(c3nc(OC[C@@]45CCCN4C[C@H](F)C5)nc(N4CCCn5nc(C(=O)N(C)C)c(Cl)c5C4)c3C#N)C2)c2c1sc(N)c2C#N` (stereo partly drawn) [Compound 14, 5-[6-(2-amino-3-cyano-6-methyl-spiro[5,6-dihydrocyclopenta[b]thiophene-4,3′-azetidine]-1′-yl)-5-cyano-2-[[(2R,8S)-2-fluoro-1,2,3,5,6,7-hexahydropyrrolizin-8-yl]methoxy]pyrimidin-4-yl]-3-chloro-N,N-dimethyl-4,6,7,8-tetrahydropyrazolo[1,5-a][1,4]diazepine-2-carboxamide] was run?
**A.** 100 to 1000 nM

**Q.** With `N#Cc1c(N)sc2c1C1(CC2)CN(c2nc(OC[C@@]34CCCN3C[C@H](F)C4)nc(N3C[C@H]4CC[C@@H](C3)N4)c2F)C1` [Compound 15, 2-amino-1′-[6-(3,8-diazabicyclo[3.2.1]octan-3-yl)-5-fluoro-2-[[(2R,8S)-2-fluoro-1,2,3,5,6,7-hexahydropyrrolizin-8-yl]methoxy]pyrimidin-4-yl]spiro[5,6-dihydrocyclopenta[b]thiophene-4,3′-azetidine]-3-carbonitrile] as the molecule, how does the IC50 read?
**A.** 100 to 1000 nM

**Q.** With `Cc1noc(-c2cc3n(n2)CCCN(c2nc(OC[C@@]45CCCN4C[C@H](F)C5)nc(N4CC5(CCc6sc(N)c(C#N)c65)C4)c2C#N)C3)n1` [Compound 16, 2-amino-1′-[5-cyano-6-[2-(3-methyl-1,2,4-oxadiazol-5-yl)-4,6,7,8-tetrahydropyrazolo[1,5-a][1,4]diazepin-5-yl]-2-[[(2R,8S)-2-fluoro-1,2,3,5,6,7-hexahydropyrrolizin-8-yl]methoxy]pyrimidin-4-yl]spiro[5,6-dihydrocyclopenta[b]thiophene-4,3′-azetidine]-3-carbonitrile] as the molecule, how does the IC50 read?
**A.** 10000 to 100000 nM

**Q.** Which IC50 does the source give for `Cc1noc(-c2nn3c(c2Cl)CN(c2nc(OC[C@@]45CCCN4C[C@H](F)C5)nc(N4CC5(CCc6sc(N)c(C#N)c65)C4)c2C#N)CCC3)n1` [Compound 17, 2-amino-1′-[6-[3-chloro-2-(3-methyl-1,2,4-oxadiazol-5-yl)-4,6,7,8-tetrahydropyrazolo[1,5-a][1,4]diazepin-5-yl]-5-cyano-2-[[(2R,8S)-2-fluoro-1,2,3,5,6,7-hexahydropyrrolizin-8-yl]methoxy]pyrimidin-4-yl]spiro[5,6-dihydrocyclopenta[b]thiophene-4,3′-azetidine]-3-carbonitrile] here?
**A.** 1000 to 10000 nM

**Q.** With `CN(C)C(=O)c1nn2c(c1Cl)CN(c1nc(OCC34CCCN3CCC4)nc(N3CC4(CCc5sc(N)c(C#N)c54)C3)c1C#N)CCC2` [Compound 18, 5-[6-(2-amino-3-cyano-spiro[5,6-dihydrocyclopenta[b]thiophene-4,3′-azetidine]-1′-yl)-5-cyano-2-(1,2,3,5,6,7-hexahydropyrrolizin-8-ylmethoxy)pyrimidin-4-yl]-3-chloro-N,N-dimethyl-4,6,7,8-tetrahydropyrazolo[1,5-a][1,4]diazepine-2-carboxamide] as the molecule, how does the IC50 read?
**A.** 100 to 1000 nM

**Q.** With `N#Cc1c(N2CCCCCC2)nc(OC[C@@]23CCCN2C[C@H](F)C3)nc1N1CC2(CCc3sc(N)c(C#N)c32)C1` [Compound 19, 2-amino-1′-[6-(azepan-1-yl)-5-cyano-2-[[(2R)-2-fluoro-1,2,3,5,6,7-hexahydropyrrolizin-8-yl]methoxy]pyrimidin-4-yl]spiro[5,6-dihydrocyclopenta[b]thiophene-4,3′-azetidine]-3-carbonitrile] as the molecule, how does the IC50 read?
**A.** 1000 to 10000 nM

**Q.** Which IC50 does the source give for `CS(=O)(=O)c1cc2n(n1)CCCN(c1nc(OC[C@@]34CCCN3C[C@H](F)C4)nc(N3CC4(CCc5sc(N)c(C#N)c54)C3)c1C#N)C2` [Compound 21, 2-amino-1′-[5-cyano-2-[[(2R,8S)-2-fluoro-1,2,3,5,6,7-hexahydropyrrolizin-8-yl]methoxy]-6-(2-methylsulfonyl-4,6,7,8-tetrahydropyrazolo[1,5-a][1,4]diazepin-5-yl)pyrimidin-4-yl]spiro[5,6-dihydrocyclopenta[b]thiophene-4,3′-azetidine]-3-carbonitrile] here?
**A.** 1000 to 10000 nM

**Q.** With `N#Cc1c(N)sc2c1C1(CC2)CN(c2nc(OCC3(CN4CCOCC4)CC3)nc(N3C[C@H]4CC[C@@H](C3)N4)c2F)C1` [Compound 22, 2-amino-1′-[6-(3,8-diazabicyclo[3.2.1]octan-3-yl)-5-fluoro-2-[[1-(morpholinomethyl)cyclopropyl]methoxy]pyrimidin-4-yl]spiro[5,6-dihydrocyclopenta[b]thiophene-4,3′-azetidine]-3-carbonitrile] as the molecule, how does the IC50 read?
**A.** 100 to 1000 nM
